How the values were obtained:
activated human C1 = assay: Test, Code 026 (C1 inhibitor); type: biochemical; conditions: serial two-fold dilution assay; higher well number indicates higher activity
Source text: (§1) An active inhibitor protects C2 from C1 and C4; (ii) Test, Code 035 (C3-C9 inhibitor) -- This test determines the ability of the late components of human complement (C3-C9) to lyse EAC 142 in the presence of appropriate dilutions of the test compound. An active inhibitor protects EAC 142 from lysis by human C3-C9; (iii) Test, Code 036 (C-Shunt inhibitor) -- In this test human erythrocytes rendered fragile are lysed in autologous serum via the shunt pathway activated by cobra venom factor in the presence of appropriate dilutions of the test compound. Inhibition of the shunt pathway results in failure of lysis; (iv) Forssman Vasculitis Test -- Here, the well known complement dependent lesion, Forssman vasculitis, is produced in guinea pigs by intradermal injection of rabbit anti-Forssman antiserum. […]

[1] = system: late components of human complement (C3-C9); assay: Test, Code 035 (C3-C9 inhibitor); type: biochemical; set-up: key: N=Negative; conditions: serial two-fold dilution assay; lysis of EAC 142 by human C3-C9
Source text: as §1

[2] = system: shunt pathway activated by cobra venom factor; assay: Test, Code 036 (C-Shunt inhibitor); type: cell-based; conditions: serial two-fold dilution assay; fragile human erythrocytes in autologous serum
Source text: as §1

`O=C([O-])c1cc(NC(=O)c2cc(C(=O)Nc3cc(C(=O)[O-])cc(C(=O)[O-])c3)c(C(=O)Nc3cc(C(=O)[O-])cc(C(=O)[O-])c3)cc2C(=O)Nc2cc(C(=O)[O-])cc(C(=O)[O-])c2)cc(C(=O)[O-])c1.[Na+].[Na+].[Na+].[Na+].[Na+].[Na+].[Na+].[Na+]` [5,5',5",5'"-[1,2,4,5-Benzenetetrayltetrakis(carbonylimino)]-tetraisophthalic acid octasodium salt] was tested, and the “Cl 026 Wells” value (activated human C1) was “+7 Wells”, the “C-Late 035 Wells” value [1] was “N” and the “Shunt Inhibition 036 Wells” value [2] was “+3 Wells”.
